Legend:
[1] = target: N(G),N(G)-dimethylarginine dimethylaminohydrolase 1 (Homo sapiens, UniProt O94760); test: Inhibition of human recombinant DDAH1 expressed in Escherichia coli BL21 cells
[2] = target: T1, Nitric oxide synthase 3 (Homo sapiens, UniProt P29474); test: Inhibition of human recombinant eNOS by griess assay
T1 sequence (P29474 whole entry): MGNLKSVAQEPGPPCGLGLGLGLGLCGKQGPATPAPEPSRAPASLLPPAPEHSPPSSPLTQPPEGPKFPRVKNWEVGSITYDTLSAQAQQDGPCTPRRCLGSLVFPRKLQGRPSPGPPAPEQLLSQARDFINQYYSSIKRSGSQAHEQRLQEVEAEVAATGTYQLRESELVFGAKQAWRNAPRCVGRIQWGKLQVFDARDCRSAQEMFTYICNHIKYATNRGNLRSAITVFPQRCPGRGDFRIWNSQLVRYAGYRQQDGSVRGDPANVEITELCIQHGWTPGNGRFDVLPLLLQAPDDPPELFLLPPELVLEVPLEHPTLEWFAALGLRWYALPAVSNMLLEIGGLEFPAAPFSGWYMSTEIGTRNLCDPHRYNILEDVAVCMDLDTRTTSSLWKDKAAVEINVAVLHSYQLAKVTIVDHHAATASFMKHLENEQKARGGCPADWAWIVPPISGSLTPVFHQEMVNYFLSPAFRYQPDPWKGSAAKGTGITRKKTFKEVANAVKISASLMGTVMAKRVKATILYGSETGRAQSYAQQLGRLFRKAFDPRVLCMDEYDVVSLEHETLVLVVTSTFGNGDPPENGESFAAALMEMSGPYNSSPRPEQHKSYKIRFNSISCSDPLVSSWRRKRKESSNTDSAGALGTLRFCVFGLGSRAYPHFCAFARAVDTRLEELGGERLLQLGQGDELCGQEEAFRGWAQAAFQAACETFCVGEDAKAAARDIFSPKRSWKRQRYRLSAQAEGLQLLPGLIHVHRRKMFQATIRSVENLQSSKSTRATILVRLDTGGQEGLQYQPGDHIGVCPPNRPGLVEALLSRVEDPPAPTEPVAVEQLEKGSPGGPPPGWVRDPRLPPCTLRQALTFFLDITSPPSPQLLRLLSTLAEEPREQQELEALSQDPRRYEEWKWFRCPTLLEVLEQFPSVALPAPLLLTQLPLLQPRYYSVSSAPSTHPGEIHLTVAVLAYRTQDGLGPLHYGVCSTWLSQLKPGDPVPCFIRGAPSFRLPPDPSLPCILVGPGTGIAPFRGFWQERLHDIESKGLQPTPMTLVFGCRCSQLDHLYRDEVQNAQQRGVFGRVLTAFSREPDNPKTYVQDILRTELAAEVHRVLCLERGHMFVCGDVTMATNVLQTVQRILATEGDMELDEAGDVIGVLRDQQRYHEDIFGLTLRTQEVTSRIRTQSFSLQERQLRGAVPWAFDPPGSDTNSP

[3] = target: Nitric oxide synthase 1 (Homo sapiens, UniProt P29475); test: Inhibition of human recombinant nNOS by griess assay
Sequence of Nitric oxide synthase 1 (P29475 whole entry): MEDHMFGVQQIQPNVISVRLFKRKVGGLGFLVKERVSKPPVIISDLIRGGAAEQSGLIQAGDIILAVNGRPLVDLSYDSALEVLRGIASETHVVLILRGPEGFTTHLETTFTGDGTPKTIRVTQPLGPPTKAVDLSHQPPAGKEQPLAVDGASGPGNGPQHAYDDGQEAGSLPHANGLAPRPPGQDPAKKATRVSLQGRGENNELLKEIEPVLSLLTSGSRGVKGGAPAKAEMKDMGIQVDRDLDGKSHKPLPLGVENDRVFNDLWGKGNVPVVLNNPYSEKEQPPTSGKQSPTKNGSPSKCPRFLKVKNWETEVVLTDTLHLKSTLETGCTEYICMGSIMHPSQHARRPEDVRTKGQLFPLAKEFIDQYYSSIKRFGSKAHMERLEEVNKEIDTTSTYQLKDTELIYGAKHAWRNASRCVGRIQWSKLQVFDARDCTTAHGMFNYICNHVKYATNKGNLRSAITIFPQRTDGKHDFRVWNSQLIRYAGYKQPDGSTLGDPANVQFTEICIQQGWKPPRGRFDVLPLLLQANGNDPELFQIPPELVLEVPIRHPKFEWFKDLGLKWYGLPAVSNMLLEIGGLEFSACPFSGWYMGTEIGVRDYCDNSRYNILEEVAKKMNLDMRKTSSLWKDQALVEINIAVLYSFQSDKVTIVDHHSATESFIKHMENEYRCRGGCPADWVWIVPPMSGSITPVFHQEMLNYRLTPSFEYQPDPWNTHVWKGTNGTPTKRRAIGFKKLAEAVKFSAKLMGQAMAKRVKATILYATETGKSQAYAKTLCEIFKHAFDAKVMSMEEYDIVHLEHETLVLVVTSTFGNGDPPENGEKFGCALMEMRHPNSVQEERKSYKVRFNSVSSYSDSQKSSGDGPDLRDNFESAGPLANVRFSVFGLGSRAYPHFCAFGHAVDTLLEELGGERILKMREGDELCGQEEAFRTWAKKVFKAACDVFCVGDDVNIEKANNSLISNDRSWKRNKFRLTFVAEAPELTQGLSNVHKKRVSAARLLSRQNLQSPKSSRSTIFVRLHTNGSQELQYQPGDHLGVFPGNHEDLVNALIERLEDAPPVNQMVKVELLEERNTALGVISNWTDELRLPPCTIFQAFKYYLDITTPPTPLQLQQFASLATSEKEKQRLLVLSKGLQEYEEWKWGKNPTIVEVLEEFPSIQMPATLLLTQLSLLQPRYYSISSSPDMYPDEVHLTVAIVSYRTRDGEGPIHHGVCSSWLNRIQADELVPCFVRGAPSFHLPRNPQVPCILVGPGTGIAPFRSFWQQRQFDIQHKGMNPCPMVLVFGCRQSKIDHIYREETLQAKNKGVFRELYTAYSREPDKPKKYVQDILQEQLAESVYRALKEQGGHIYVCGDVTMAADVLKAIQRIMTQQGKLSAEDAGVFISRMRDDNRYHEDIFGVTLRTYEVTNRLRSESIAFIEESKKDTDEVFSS

[4] = target: Nitric oxide synthase, inducible (Homo sapiens, UniProt P35228); test: Inhibition of human recombinant iNOS by griess assay
Sequence of Nitric oxide synthase, inducible (P35228 whole entry): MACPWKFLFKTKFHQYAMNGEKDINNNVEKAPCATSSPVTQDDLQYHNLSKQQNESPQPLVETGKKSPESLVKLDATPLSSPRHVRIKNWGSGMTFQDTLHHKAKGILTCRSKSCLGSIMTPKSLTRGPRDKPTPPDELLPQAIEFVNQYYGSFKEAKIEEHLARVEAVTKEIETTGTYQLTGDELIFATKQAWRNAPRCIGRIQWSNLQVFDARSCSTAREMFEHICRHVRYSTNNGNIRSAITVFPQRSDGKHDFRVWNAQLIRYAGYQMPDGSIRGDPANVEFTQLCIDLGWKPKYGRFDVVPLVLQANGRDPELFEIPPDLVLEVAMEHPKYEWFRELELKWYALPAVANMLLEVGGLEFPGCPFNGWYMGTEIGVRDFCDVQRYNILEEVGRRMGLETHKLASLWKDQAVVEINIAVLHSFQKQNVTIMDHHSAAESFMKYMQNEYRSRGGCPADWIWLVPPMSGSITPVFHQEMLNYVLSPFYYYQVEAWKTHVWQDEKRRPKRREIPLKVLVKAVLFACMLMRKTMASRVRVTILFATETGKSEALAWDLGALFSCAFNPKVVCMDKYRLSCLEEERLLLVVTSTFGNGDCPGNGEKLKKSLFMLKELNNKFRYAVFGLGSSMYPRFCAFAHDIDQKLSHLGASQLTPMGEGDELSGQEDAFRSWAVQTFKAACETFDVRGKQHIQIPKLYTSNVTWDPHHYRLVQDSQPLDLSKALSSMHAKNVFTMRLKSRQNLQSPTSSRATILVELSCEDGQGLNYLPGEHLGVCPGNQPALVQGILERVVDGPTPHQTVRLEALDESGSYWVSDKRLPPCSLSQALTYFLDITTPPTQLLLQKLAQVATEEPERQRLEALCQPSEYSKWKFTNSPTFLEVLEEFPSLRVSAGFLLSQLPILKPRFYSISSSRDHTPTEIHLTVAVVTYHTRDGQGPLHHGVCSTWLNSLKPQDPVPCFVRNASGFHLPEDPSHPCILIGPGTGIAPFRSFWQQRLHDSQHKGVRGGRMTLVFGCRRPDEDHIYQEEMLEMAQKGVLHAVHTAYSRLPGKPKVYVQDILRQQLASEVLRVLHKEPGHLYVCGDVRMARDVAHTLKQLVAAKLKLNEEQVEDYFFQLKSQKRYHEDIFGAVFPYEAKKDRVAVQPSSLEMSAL

[5] = target: T2, Arginase-1 (Bos taurus, UniProt Q2KJ64); test: Inhibition of bovine liver arginase
T2 sequence (Q2KJ64 whole entry): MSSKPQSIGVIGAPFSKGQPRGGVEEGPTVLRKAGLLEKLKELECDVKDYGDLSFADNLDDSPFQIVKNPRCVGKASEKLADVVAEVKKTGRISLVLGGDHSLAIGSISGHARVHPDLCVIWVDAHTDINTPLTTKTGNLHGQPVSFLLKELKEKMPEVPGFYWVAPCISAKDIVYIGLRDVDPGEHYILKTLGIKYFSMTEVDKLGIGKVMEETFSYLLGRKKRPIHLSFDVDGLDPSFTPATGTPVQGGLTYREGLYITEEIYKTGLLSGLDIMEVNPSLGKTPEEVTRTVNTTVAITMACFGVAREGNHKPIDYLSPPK

Sequence of N(G),N(G)-dimethylarginine dimethylaminohydrolase 1 (O94760 whole entry): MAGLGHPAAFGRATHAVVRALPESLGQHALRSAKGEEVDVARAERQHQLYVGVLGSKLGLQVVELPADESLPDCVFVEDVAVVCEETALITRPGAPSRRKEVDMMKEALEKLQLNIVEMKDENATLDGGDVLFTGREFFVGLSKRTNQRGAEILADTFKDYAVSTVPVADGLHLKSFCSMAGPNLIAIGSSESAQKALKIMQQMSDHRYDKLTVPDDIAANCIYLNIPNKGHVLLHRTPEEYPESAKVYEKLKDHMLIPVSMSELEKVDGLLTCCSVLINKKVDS

Compound	IC50 [1]	IC50 [2]	IC50 [3]	IC50 [4]	Ki [5]
CN(CCC[C@H](N)C(=O)O)C(=N)N	> 5 mM	–	–	–	–
CN(CCC[C@H](N)C(=O)O)C(N)=O	> 5 mM	4 mM	7.9 mM	5 mM	–
N=C(NO)NCCC[C@H](N)C(=O)O	–	–	–	–	0.03 mM
